According to patent US20260125736A1, “FURIN SENSORS AND APPLICATIONS THEREOF” (FLAREON BIOTECH GMBH, priority 2023, published 2026):
Primed or numbered codes have the meaning given here. Ends that are not written are not given here. * marks the point of attachment. Dabcyl′ = 4-((4-(dimethylamino)phenyl)azo)benzoic acid, CN(C)c1ccc(/N=N/c2ccc(C(=O)*)cc2)cc1; EDANS = O=S(=O)(O)c1cccc2c(NCCN*)cccc12

Legend:
HNSCC tissue = assay type: cell-based, human
HNSCC tumor tissue = assay: FRET-based sensor tissue incubation (fluorescence, ex 340 nm / em 490 nm); assay type: cell-based, human; settings: 10 μM sensor, incubation over 60 min, 37° C., cleavage determined against blank (intact sensor)
Protocol: All included patients were diagnosed with primary oral squamous cell carcinoma (OSCC). Patients suffering from other tumor entities as well as inoperable cases were excluded from this study.
After performing preoperative tumor staging and incisional biopsy to confirm the diagnosis, stage-appropriate tumor resection, lymph-node dissection, and reconstruction took place. Tumor resection was performed in the usual way, which included using separate margins for frozen section analysis in order to confirm in sano resection. […]
Tissues were stored on ice in sterile filtered in cell culture medium (RPMI-1640, Dutch modification, 10% FCS, 1% Penicillin/Streptomycin, Nystatin). […] After the 24h incubation, one of the tumor tissues was analyzed using FDA. […] The tumor tissue was incubated for 5 min and analyzed via Axio Observer.Z1 microscope equipped with an A-Plan 10×/0.25 Ph1 objective (Zeiss), 38 HE Green Fluorescent Protein (λex=450-490 nm, λem=500-550 nm) and a mercury vapor short-arc lamp.
Tissues were prepared as described before. […] The tissues were incubated at 37° C. and analyzed at t=0, 5, 10, 15, 20, 25, 30, 40, 50 and 60 min via an Infinite M plex (Tecan trading AG, Mannedorf, Switzerland) with an excitation wavelength of λ=340 nm and an emission wavelength of λ=490 nm. […]

furin [1] = target: T1, furin (Homo sapiens, UniProt P09958); assay: Cleavage of FRET sensors by furin / illumination of C1S; assay type: biochemical; settings: C1S 10 μM incubated with furin for 60 min, illuminated at 350 nm; compared with C1S without furin
T1 sequence (P09958 108-794): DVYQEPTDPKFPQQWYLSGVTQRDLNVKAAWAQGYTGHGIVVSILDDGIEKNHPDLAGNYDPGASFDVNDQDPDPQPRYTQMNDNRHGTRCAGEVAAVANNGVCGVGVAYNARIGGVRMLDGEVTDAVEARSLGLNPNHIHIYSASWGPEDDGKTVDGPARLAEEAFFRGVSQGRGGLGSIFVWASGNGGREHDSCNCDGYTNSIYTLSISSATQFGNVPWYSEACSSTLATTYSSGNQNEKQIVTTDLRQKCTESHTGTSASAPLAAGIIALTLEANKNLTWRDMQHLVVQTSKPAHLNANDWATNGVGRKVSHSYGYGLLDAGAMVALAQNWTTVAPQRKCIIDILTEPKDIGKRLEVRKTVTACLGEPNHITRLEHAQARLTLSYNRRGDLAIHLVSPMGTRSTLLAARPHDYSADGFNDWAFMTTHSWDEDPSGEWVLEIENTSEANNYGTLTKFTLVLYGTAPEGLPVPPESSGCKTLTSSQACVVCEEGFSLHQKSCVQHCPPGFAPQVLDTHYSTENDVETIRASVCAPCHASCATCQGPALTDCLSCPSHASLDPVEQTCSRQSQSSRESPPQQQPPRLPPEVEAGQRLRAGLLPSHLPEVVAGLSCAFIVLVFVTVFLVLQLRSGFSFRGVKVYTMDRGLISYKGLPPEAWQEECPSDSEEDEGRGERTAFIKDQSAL
Protocol: Negative controls were performed without furin. Experiments were performed n=3. The samples were analyzed using an Infinite M plex (Tecan trading AG, Mannedorf, Switzerland) with an excitation wavelength of λ=340 nm and an emission wavelength of A =490 nm.
Sensor C1S was incubated as described before under cleavage of FRET sensors with and without furin for 60 min and illuminated via Universal UV Lampe (CAMAG, Germany) with λ=350 nm.

furin [2] = target: T1, furin; assay: Peptide cleavage by furin, analysed by HPLC (AUC of main peak vs negative control without furin); settings: cleavage of PSL via furin within 15 min; 0.1 mM peptide, 1 U furin, 37° C., n=3
Protocol: Lyophilized peptides were solubilized in furin buffer (100 mM HEPES pH 7.5, 5 mM CaCl2) to 1 mM stock solutions. Cleavage was performed at 37° C. under rigorous shaking in 30 μL furin buffer containing 0.1 mM of the respective peptide and 1 U furin per reaction. The reaction was stopped via addition of 5 mM EDTA final concentration. Experiments were performed n=3.
Analytical HPLC was carried out via an Agilent 1260 infinity II HPLC (Agilent Technologies Inc., Waldbronn, Germany) using a Zorbax 300SB-CN 5 μm analytical 4.6×150 mm LC column (Agilent Technologies Inc., Waldbronn, Germany) The device was equipped with a diode array detector (G7115A, Agilent), a fluorescence detector (G7121A, Agilent), an automatic vial sampler (G7129C, Agilent), flexible Pump (G7104C, Agilent), and multicolumn oven (G7116A, Agilent). Mobile phase A was 0.1% TFA in Millipore water. Mobile phase B was ACN with 0.1% TFA, flow was set to 1 ml/min, injection volume was 15 μl, and the wavelength of the detector was set to A=214 nm. […]
Cleavage percent was analyzed by comparing the area under the curve (AUC) of the main peak from the respective peptide incubated with furin, compared to a negative control without furin.

| Substance | time after which a fluorescent signal difference between HNSCC and healthy tissue is visually recognizable (HNSCC tissue) [min] | visual difference between healthy and HNSCC tissues in the first 30 minutes (HNSCC tissue) | fold increase of sensor cleavage of the tumor tissue compared to healthy tissue (HNSCC tumor tissue) [fold] | fluorescence observed visually after incubation with furin (furin [1]) | Cleavage (furin [2]) [%] |
| --- | --- | --- | --- | --- | --- |
| Ac-EG-K(Dabcyl)-RTAMTAGA-E(Edans)-GE (Ac-EGK(Dabcyl′)RTAMTAGAE(EDANS)GE) [Z3S] | 35 | no difference could be observed |  |  |  |
| Ac-K(Dabcyl)-RRARSVAS-E(Edans) (Ac-K(Dabcyl′)RRARSVASE(EDANS)) [C1S] | 5 |  | > 2 | distinct cyan fluorescence |  |
| RTAMSAGA [Z5] |  |  |  |  | 26.16 |
